# Measured values from US5674977A, “Branched synthetic peptide conjugate” (The Ontario Cancer Institute, priority 1994, dated 1997).
# Numbered stars: 1 amine (or outer) side, 2 acyl side, 3 side chain; on linkers, the order of the positions; unused ones are H or OH. Square brackets hold non-standard residues; d marks the D form. Peptide text beside a SMILES is read from it. X1 = C[C@@H](O)[C@@H](C(=O)[*:2])N(c1c2ccccc2nc2ccccc12)[*:1]
# Tested on: CHO cells
# Test: MTT cell viability (cytotoxicity) assay
# Format: cell-based, Chinese hamster
# Details: concentrations as high as 100 μM, 2 hour incubation period
# Text: The cytotoxicity of peptide 1 and octopeptides 2-5 was established in Chinese hamster ovary (CHO) cells in order to select a minimal octopeptide concentration suitable for detecting the constructs by flow cytometry and fluorescence microscopy on live cells. The cytotoxicity of each construct was established using the MTT cell viability assay (FIG. 1; Mosmann, 1983). […] Linear polymers having a mass of less than 13 kDa were shown not to be cytotoxic to HeLa cells (Arnold et al., 1979). […] At a concentration of 1 μM, none of the octopeptides were cytotoxic to CHO cells (FIG. 1). […] The penetration and localization of acridine and rhodamine chromophores in viable CHO cells were observed during fluorescence microscopy and flow cytometry experiments by exposing cells to concentrations of octopeptides ranging from 0.1 to 1 μM. […]
# The quantitative MTT colorimetric assay developed by Mosmann (1983) was used to determine the toxicity of peptide constructs of the invention toward CHO cells. […] The blue MTT formazan product generated by living cells was quantified by measuring the optical density of the cellular extract at 620 nm. […] Absorbance values were translated into measurements of cell viability and reflect the average of experiments performed in triplicate.
smiles,measurement,value
"CC(C)[C@H](NC(=O)[C@H](CCCCN)NC(=O)[C@H](CCCNC(=N)N)NC(=O)[C@H](CCCCN)NC(=O)[C@H](CCCCN)NC(=O)[C@H](CCCCN)NC(=O)[C@@H]1CCCN1C(=O)[C@@H]1CCCN1C(=O)[C@@H](Nc1c2ccccc2nc2ccccc12)[C@@H](C)O)C(=O)N[C@@H](CCC(=O)O)C(=O)N[C@@H](CC(=O)O)C(=O)N1CCC[C@H]1C(=O)N[C@@H](CCCCN)C(=O)N[C@@H](CCCCN)C(=O)N[C@@H](CCCCN)C(=O)N[C@@H](CCCCN)C(=O)N[C@@H](CCCCN)C(=O)O [peptide 1, Acr-NLS-CTS] (H-[X1]PPKKKRKVEDPKKKKK-OH)",toxicity to CHO cells,not toxic
